For one assay, the target named is T1, human MER (Homo sapiens, UniProt Q12866).
T1 construct: purchased Invitrogen
T1 sequence (Q12866 21-999): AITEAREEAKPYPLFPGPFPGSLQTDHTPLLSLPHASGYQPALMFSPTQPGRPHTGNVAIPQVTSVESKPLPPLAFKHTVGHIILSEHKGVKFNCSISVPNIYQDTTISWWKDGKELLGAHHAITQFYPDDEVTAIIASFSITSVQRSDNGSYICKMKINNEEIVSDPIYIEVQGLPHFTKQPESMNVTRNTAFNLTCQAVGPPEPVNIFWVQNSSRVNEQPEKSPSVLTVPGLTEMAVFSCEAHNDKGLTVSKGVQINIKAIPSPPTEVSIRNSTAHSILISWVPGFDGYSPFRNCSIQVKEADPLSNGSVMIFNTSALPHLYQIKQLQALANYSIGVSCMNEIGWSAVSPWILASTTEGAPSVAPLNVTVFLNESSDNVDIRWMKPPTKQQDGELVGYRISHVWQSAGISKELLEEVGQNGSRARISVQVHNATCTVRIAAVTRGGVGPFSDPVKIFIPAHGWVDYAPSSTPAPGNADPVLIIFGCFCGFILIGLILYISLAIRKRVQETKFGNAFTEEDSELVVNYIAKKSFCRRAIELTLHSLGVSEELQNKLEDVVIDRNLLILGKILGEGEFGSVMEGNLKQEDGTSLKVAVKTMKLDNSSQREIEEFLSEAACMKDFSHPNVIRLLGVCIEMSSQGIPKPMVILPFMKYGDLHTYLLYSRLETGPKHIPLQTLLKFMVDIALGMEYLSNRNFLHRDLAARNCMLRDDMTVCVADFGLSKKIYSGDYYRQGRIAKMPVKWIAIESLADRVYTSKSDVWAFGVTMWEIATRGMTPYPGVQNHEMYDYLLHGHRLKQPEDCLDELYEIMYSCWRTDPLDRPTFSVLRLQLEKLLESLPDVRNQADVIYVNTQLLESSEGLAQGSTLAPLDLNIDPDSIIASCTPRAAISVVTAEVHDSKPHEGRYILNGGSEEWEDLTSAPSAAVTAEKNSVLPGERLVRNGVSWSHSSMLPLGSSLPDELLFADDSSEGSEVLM
As to the kind of experiment: HTRF KinEASE-TK biochemical potency assay, MER. The conditions noted are these: 1 nM MER, 700 μM ATP, 800 nM TK Substrate-biotin. Summed up:
(§1)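 HTRF 665/620 nm read-out after streptavidin-XL665/anti-phosphotyrosine cryptate detection (1 h RT). Final reaction: 5 nM AXL or 1 nM TYRO3/MER, 800 nM TK substrate-biotin, 700 μM ATP, pH 7.4 HEPES buffer, 1% DMSO, 2 h RT, after 1 h enzyme–compound preincubation.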

In another assay the target is T2, human TYRO3 (Homo sapiens, UniProt Q06418).
T2 construct: purchased Invitrogen
T2 sequence (Q06418 41-890): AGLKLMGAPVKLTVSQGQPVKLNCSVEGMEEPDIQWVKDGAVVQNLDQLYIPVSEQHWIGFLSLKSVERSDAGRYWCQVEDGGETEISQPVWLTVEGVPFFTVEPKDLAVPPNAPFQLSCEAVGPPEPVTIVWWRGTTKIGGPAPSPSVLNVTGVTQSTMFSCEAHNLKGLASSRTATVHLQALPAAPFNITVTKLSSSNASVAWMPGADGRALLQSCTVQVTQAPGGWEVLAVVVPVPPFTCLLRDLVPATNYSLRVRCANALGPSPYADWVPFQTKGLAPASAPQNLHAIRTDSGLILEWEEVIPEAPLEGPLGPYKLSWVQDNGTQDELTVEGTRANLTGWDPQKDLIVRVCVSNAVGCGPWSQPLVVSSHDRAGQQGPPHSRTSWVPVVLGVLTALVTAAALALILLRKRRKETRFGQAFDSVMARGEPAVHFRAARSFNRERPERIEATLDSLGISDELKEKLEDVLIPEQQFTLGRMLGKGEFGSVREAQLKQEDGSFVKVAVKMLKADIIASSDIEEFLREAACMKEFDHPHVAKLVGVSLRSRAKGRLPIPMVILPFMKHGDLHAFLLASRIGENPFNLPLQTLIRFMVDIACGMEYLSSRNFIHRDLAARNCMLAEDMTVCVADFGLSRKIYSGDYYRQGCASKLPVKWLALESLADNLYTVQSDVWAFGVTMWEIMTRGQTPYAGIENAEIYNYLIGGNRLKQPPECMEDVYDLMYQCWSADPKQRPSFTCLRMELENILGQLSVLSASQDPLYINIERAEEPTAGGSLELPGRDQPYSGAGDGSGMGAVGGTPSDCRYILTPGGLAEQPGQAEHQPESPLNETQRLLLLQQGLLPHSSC
As to the kind of experiment: HTRF KinEASE-TK biochemical potency assay, TYRO3. To be noted: 1 nM TYRO3, 700 μM ATP, 800 nM TK Substrate-biotin. The essentials:
as §1

In the case of `Cc1cc2c(cc1-c1cnc3[nH]nc(-c4ccc(C(C)(C)O)c(Cl)c4)c3c1)CCC(N1CCC[C@H]1C)CC2` (stereo partly drawn) [Example 90, 2-[2-Chloro-4-(5-{3-methyl-7-[(2R)-2-methylpyrrolidin-1-yl]-6,7,8,9-tetrahydro-5H-benzo[7]annulen-2-yl}-1H-pyrazolo[3,4-b]pyridin-3-yl)phenyl]propan-2-ol], the half-maximal inhibitory concentration (IC50) against human MER and on human TYRO3 was more than 1000 nM each time.

As to `C[C@@H]1CCCN1C1(C)CCc2ccc(-c3cnc4[nH]nc(-c5ccc(C(=O)NC6CCOCC6)cc5)c4c3)cc2CC1` (stereo partly drawn) [Example 88, 4-(5-(7-Methyl-7-((R)-2-methylpyrrolidin-1-yl)-6,7,8,9-tetrahydro-5H-benzo[7]annulen-2-yl)-1H-pyrazolo[3,4-b]pyridin-3-yl)-N-(tetrahydro-2H-pyran-4-yl)benzamide], the concentration for half-maximal inhibition (IC50) – broadly, the concentration needed to halve the response being measured – is more than 1000 nM against human MER and 100 to 1000 nM against human TYRO3.

As to `CC(C)NC(=O)c1ccc(-c2n[nH]c3ncc(-c4ccc5c(c4)CCC(C)(N4CCC[C@H]4C)CC5)cc23)cc1` (stereo partly drawn) [Example 70, 4-(5-{7-Methyl-7-[(2R)-2-methylpyrrolidin-1-yl]-6,7,8,9-tetrahydro-5H-benzo[7]annulen-2-yl}-1H-pyrazolo[3,4-b]pyridin-3-yl)-N-(propan-2-yl)benzamide], the results for the IC50 on human MER and against human TYRO3 were more than 1000 nM and 100 to 1000 nM, respectively.

As for `CCC1(N2CCC[C@@H]2CO)CCc2ccc(-c3cnc4[nH]nc(-c5ccc(C(N)=O)c(Cl)c5)c4c3)cc2CC1` (stereo partly drawn) [Example 74, 2-Chloro-4-(5-{7-ethyl-7-[(2R)-2-(hydroxymethyl)pyrrolidin-1-yl]-6,7,8,9-tetrahydro-5H-benzo[7]annulen-2-yl}-1H-pyrazolo[3,4-b]pyridin-3-yl)benzamide], the IC50 against human MER and on human TYRO3 was less than 100 nM throughout.

As to `COCCNC(=O)c1ccc(-c2n[nH]c3ncc(-c4ccc5c(c4)CCC(C)(N4CCC[C@H]4C)CC5)cc23)cc1` (stereo partly drawn) [Example 72, N-(2-Methoxyethyl)-4-(5-{7-methyl-7-[(2R)-2-methylpyrrolidin-1-yl]-6,7,8,9-tetrahydro-5H-benzo[7]annulen-2-yl}-1H-pyrazolo[3,4-b]pyridin-3-yl)benzamide], the IC50 against human MER is more than 1000 nM; against human TYRO3 it was 100 to 1000 nM.

On to `NC(=O)c1ccc(-c2n[nH]c3ncc(-c4ccc5c(c4)CCC(N4CCCC4)CC5)cc23)cc1C(F)(F)F` (centres unmarked) [Example 80, 4-(5-(7-(Pyrrolidin-1-yl)-6,7,8,9-tetrahydro-5H-benzo[7]annulen-2-yl)-1H-pyrazolo[3,4-b]pyridin-3-yl)-2-(trifluoromethyl)benzamide], for which the results for the 50% inhibitory concentration (IC50) against human MER and at human TYRO3 were 100 to 1000 nM and less than 100 nM, respectively.

Regarding `C[C@@H]1CCCN1C1CCc2ccc(-c3cnc4[nH]nc(-c5ccc(C6(O)COC6)c(Cl)c5)c4c3)cc2CC1` (stereo partly drawn) [Example 64, 3-[2-Chloro-4-(5-{7-[(2R)-2-methylpyrrolidin-1-yl]-6,7,8,9-tetrahydro-5H-benzo[7]annulen-2-yl}-1H-pyrazolo[3,4-b]pyridin-3-yl)phenyl]oxetan-3-ol], the IC50 is more than 1000 nM against human MER and 100 to 1000 nM at human TYRO3.

(Values after patent publication US20240246967A1, “AXL COMPOUNDS” (ARCUS BIOSCIENCES, INC., priority 2021, published 2024).)
